Data taken from patent US7612064B2, “Sulfopyrroles” (Takeda Pharmaceutical Company Limited, priority 2003, dated 2009).
pIC50: −log10 of the molar value.

What was measured:
HeLa [1] = experiment: MTS proliferation assay; assay type: cell-based, human; details: 72 h
Summary of the method: (§1)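 Four-point treatment (0.3–10 μM final) ran 72 h in complete medium, with the compound-containing addition holding no more than 5% DMSO. Metabolic activity was then developed with MTS reagent over 3 h and quantified by absorbance (492 nm).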

Jurkat [2] = experiment: MTS proliferation assay; assay type: cell-based, human; details: 72 h
Summary of the method: as §1

HeLa [3] = experiment: PI staining for cell cycle distribution; assay type: cell-based, human; set-up: key: 0: no effect; 1: weak effect; 2: strong effect; details: HeLa 10μM, 48 h
Description: (§2) 1-2*10^5 cells are seeded into 24 well tissue culture plates and incubated for 24 h prior to compound addition. […] Adherent cells are harvested by trypsinization. The cell suspensions are fixed by adding 2 parts ice cold ethanol 100% while vortexing. Then the samples are stored for>2 h at −20° C. Subsequently the cells are washed with PBS once and resuspended in 250 μl PBS containing 50 μg/ml PI (Calbiochem # 537059), then the samples are incubated at 37° C. for 30 min and subsequently analyzed on a FACSCalibur™ monitoring linear PI fluorescence activity on FL2. The readout allows the detection of a possible direct or indirect influence of the tested compounds on the cell cycle. The following events can occur: a) Generation of a subG1 peak indicative for DNA fragmentation, b) increase of the cell population arrested in G2M phase. Both events are scored by 1 for weak and 2 for strong occurrence. 0 indicates no occurrence at all.

Jurkat [4] = experiment: PI staining for cell cycle distribution; assay type: cell-based, human; set-up: key: 0: no effect; 1: weak effect; 2: strong effect; details: Jurkat 3μM, 48 h
Description: as §2

MRC5 = experiment: MTS proliferation assay; assay type: cell-based; details: MRC5, 72 h
Summary of the method: as §1

Jily = experiment: MTS proliferation assay; assay type: cell-based; details: 72 h
Summary of the method: as §1

[5] = Hoechst 33342 nuclear staining; assay type: cell-based; details: 24 h or 48 h incubation; for Hoechst 33342 nuclear staining score, H460: H460 cells; for Hoechst 33342 nuclear staining score, HeLa: HeLa cells; for Hoechst 33342 nuclear staining score, Jily: Jily cells; for Hoechst 33342 nuclear staining score, Jurkat: Jurkat cells; for Hoechst 33342 nuclear staining score, MRC5: MRC5 cells;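 as to all read-outs here: apoptotic nuclei scored 0 none 1 weak under 50% of cells 2 strong over 50% of cells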
Summary of the method: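 After a further 30 min incubation, plates were inspected on a standard inverted fluorescence microscope. The fraction of apoptotic nuclei and other apoptosis-specific morphology were scored as 0 for no activity, 1 for weak activity in less than 50% of the cells, and 2 for strong activity in more than 50% of the cells.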

[6] = conc 0.1 (final concentrations in μM)
[7] = conc 0.3 (final concentrations in μM)
[8] = conc 1 (final concentrations in μM)
[9] = conc 3 (final concentrations in μM)

Cc1ccc(S(=O)(=O)n2cc(-c3ccc(S(N)(=O)=O)cc3)cc2-c2ccc3c(c2)OCO3)cc1 [Example 51]
pIC50 (HeLa [1]): > 6.00
pIC50 (Jurkat [2]): > 6.00
PI staining for cell cycle distribution, G2M (HeLa [3]): 2
PI staining for cell cycle distribution, subG1 (HeLa [3]): 0
PI staining for cell cycle distribution, G2M (Jurkat [4]): 1
PI staining for cell cycle distribution, subG1 (Jurkat [4]): 0
pIC50 (MRC5): > 6.00
pIC50 (Jily): > 6.00
Hoechst 33342 nuclear staining score, H460 [5, 6]: 0
Hoechst 33342 nuclear staining score, H460 [5, 7]: 0
Hoechst 33342 nuclear staining score, H460 [5, 8]: 2 (strong activity comprising more than 50% of the cells)
Hoechst 33342 nuclear staining score, H460 [5, 9]: 2 (strong activity comprising more than 50% of the cells)
Hoechst 33342 nuclear staining score, HeLa [5, 6]: 0
Hoechst 33342 nuclear staining score, HeLa [5, 7]: 0
Hoechst 33342 nuclear staining score, HeLa [5, 8]: 2 (strong activity comprising more than 50% of the cells)
Hoechst 33342 nuclear staining score, HeLa [5, 9]: 2 (strong activity comprising more than 50% of the cells)
Hoechst 33342 nuclear staining score, Jily [5, 6]: 0
Hoechst 33342 nuclear staining score, Jily [5, 7]: 0
Hoechst 33342 nuclear staining score, Jily [5, 8]: 2 (strong activity comprising more than 50% of the cells)
Hoechst 33342 nuclear staining score, Jily [5, 9]: 2 (strong activity comprising more than 50% of the cells)
Hoechst 33342 nuclear staining score, Jurkat [5, 6]: 0
Hoechst 33342 nuclear staining score, Jurkat [5, 7]: 0
Hoechst 33342 nuclear staining score, Jurkat [5, 8]: 2 (strong activity comprising more than 50% of the cells)
Hoechst 33342 nuclear staining score, Jurkat [5, 9]: 2 (strong activity comprising more than 50% of the cells)
Hoechst 33342 nuclear staining score, MRC5 [5, 6]: 0
Hoechst 33342 nuclear staining score, MRC5 [5, 7]: 0
Hoechst 33342 nuclear staining score, MRC5 [5, 8]: 1 (weak activity comprising less than 50% of the cells)
Hoechst 33342 nuclear staining score, MRC5 [5, 9]: 1 (weak activity comprising less than 50% of the cells)
Hoechst 33342 nuclear staining score, PBLs [5, 6]: 0
Hoechst 33342 nuclear staining score, PBLs [5, 7]: 0
Hoechst 33342 nuclear staining score, PBLs [5, 8]: 0
Hoechst 33342 nuclear staining score, PBLs [5, 9]: 0

Cc1ccc(S(=O)(=O)n2cc(-c3cncc(C(N)=O)c3)cc2-c2cccs2)cc1 [Example 53]
pIC50 (HeLa [1]): < 6.00
pIC50 (Jurkat [2]): > 6.00
PI staining for cell cycle distribution, G2M (HeLa [3]): 2
PI staining for cell cycle distribution, subG1 (HeLa [3]): 0
PI staining for cell cycle distribution, G2M (Jurkat [4]): 1
PI staining for cell cycle distribution, subG1 (Jurkat [4]): 0
pIC50 (MRC5): < 6.00
Hoechst 33342 nuclear staining score, H460 [5, 6]: 0
Hoechst 33342 nuclear staining score, H460 [5, 7]: 0
Hoechst 33342 nuclear staining score, H460 [5, 8]: 0
Hoechst 33342 nuclear staining score, H460 [5, 9]: 0
Hoechst 33342 nuclear staining score, HeLa [5, 6]: 0
Hoechst 33342 nuclear staining score, HeLa [5, 7]: 0
Hoechst 33342 nuclear staining score, HeLa [5, 8]: 0
Hoechst 33342 nuclear staining score, HeLa [5, 9]: 0
Hoechst 33342 nuclear staining score, Jily [5, 6]: 0
Hoechst 33342 nuclear staining score, Jily [5, 7]: 0
Hoechst 33342 nuclear staining score, Jily [5, 8]: 0
Hoechst 33342 nuclear staining score, Jily [5, 9]: 0
Hoechst 33342 nuclear staining score, Jurkat [5, 6]: 0
Hoechst 33342 nuclear staining score, Jurkat [5, 7]: 0
Hoechst 33342 nuclear staining score, Jurkat [5, 8]: 0
Hoechst 33342 nuclear staining score, Jurkat [5, 9]: 0
Hoechst 33342 nuclear staining score, MRC5 [5, 6]: 0
Hoechst 33342 nuclear staining score, MRC5 [5, 7]: 0
Hoechst 33342 nuclear staining score, MRC5 [5, 8]: 0
Hoechst 33342 nuclear staining score, MRC5 [5, 9]: 0
Hoechst 33342 nuclear staining score, PBLs [5, 6]: 0
Hoechst 33342 nuclear staining score, PBLs [5, 7]: 0
Hoechst 33342 nuclear staining score, PBLs [5, 8]: 0
Hoechst 33342 nuclear staining score, PBLs [5, 9]: 0

COc1cc(-c2cc(CNc3ccc(-n4ccnc4)cc3)cn2S(=O)(=O)c2ccc(C)cc2)cc(OC)c1OC [Example 55]
pIC50 (HeLa [1]): < 6.00
pIC50 (Jurkat [2]): > 6.00
PI staining for cell cycle distribution, G2M (HeLa [3]): 2
PI staining for cell cycle distribution, subG1 (HeLa [3]): 0
PI staining for cell cycle distribution, G2M (Jurkat [4]): 1
PI staining for cell cycle distribution, subG1 (Jurkat [4]): 0
pIC50 (MRC5): > 6.00
pIC50 (Jily): < 6.00
Hoechst 33342 nuclear staining score, H460 [5, 6]: 0
Hoechst 33342 nuclear staining score, H460 [5, 7]: 0
Hoechst 33342 nuclear staining score, H460 [5, 8]: 0
Hoechst 33342 nuclear staining score, H460 [5, 9]: 2 (strong activity comprising more than 50% of the cells)
Hoechst 33342 nuclear staining score, HeLa [5, 6]: 0
Hoechst 33342 nuclear staining score, HeLa [5, 7]: 0
Hoechst 33342 nuclear staining score, HeLa [5, 8]: 1 (weak activity comprising less than 50% of the cells)
Hoechst 33342 nuclear staining score, HeLa [5, 9]: 2 (strong activity comprising more than 50% of the cells)
Hoechst 33342 nuclear staining score, Jily [5, 6]: 0
Hoechst 33342 nuclear staining score, Jily [5, 7]: 0
Hoechst 33342 nuclear staining score, Jily [5, 8]: 2 (strong activity comprising more than 50% of the cells)
Hoechst 33342 nuclear staining score, Jily [5, 9]: 2 (strong activity comprising more than 50% of the cells)
Hoechst 33342 nuclear staining score, Jurkat [5, 6]: 0
Hoechst 33342 nuclear staining score, Jurkat [5, 7]: 0
Hoechst 33342 nuclear staining score, Jurkat [5, 8]: 2 (strong activity comprising more than 50% of the cells)
Hoechst 33342 nuclear staining score, Jurkat [5, 9]: 2 (strong activity comprising more than 50% of the cells)
Hoechst 33342 nuclear staining score, MRC5 [5, 6]: 0
Hoechst 33342 nuclear staining score, MRC5 [5, 7]: 0
Hoechst 33342 nuclear staining score, MRC5 [5, 8]: 0
Hoechst 33342 nuclear staining score, MRC5 [5, 9]: 1 (weak activity comprising less than 50% of the cells)
Hoechst 33342 nuclear staining score, PBLs [5, 6]: 0
Hoechst 33342 nuclear staining score, PBLs [5, 7]: 0
Hoechst 33342 nuclear staining score, PBLs [5, 8]: 0
Hoechst 33342 nuclear staining score, PBLs [5, 9]: 0

p-(1-[p-Toluenesulfonyl]-2-[3,4,5-trimethoxyphenyl]-4-pyrrolyl)-benzamide [Example 6]
pIC50 (HeLa [1]): > 6.00
pIC50 (Jurkat [2]): > 6.70
PI staining for cell cycle distribution, G2M (HeLa [3]): 2
PI staining for cell cycle distribution, subG1 (HeLa [3]): 0
PI staining for cell cycle distribution, G2M (Jurkat [4]): 1
PI staining for cell cycle distribution, subG1 (Jurkat [4]): 0
pIC50 (MRC5): > 6.00
